pIC50: −log10 of the molar value.
Legend:
sodium channel = experiment: Guanidine influx assay (14C-guanidine radiotracer flux) in a known cell line that expresses a sodium channel; format: cell-based, human or rat
Source text: This example describes an in vitro assay for testing and profiling test agents against human or rat sodium channels stably expressed in cells of either an endogenous or recombinant origin.
The guanidine influx assay is a radiotracer flux assay used to determine ion flux activity of sodium channels in a high-throughput microplate-based format. The assay uses ^14C-guanidine hydrochloride in combination with various known sodium channel modulators, to assay the potency of test agents. Potency is determined by an IC50 calculation. Selectivity is determined by comparing potency of the compound for the channel of interest to its potency against other sodium channels (also called ‘selectivity profiling’).
Each of the test agents is assayed against cells that express the sodium channel of interest. Voltage gated sodium channels are either TTX sensitive or insensitive. This property is useful when evaluating the activities of a channel of interest when it resides in a mixed population with other sodium channels. The following Table 1 lists certain cell lines which are useful in screening for a certain sodium channel activity in the presence or absence of TTX.
It is also possible to employ recombinant cells expressing these sodium channels.
Cells expressing the channel of interest are grown according to the supplier or in the case of a recombinant cell in the presence of selective growth media such as G418 (Gibco/Invitrogen). The cells are disassociated from the culture dishes with an enzymatic solution (1×) Trypsin/EDTA (Gibco/Invitrogen) and analyzed for density and viability using haemocytometer (Neubauer). Disassociated cells are washed and resuspended in their culture media then plated into Scintiplates (Beckman Coulter Inc.) (approximately 100,000 cells/well) and incubated at 37° C./5% CO2 for 20-24 hours. After an extensive wash with Low sodium HEPES-buffered saline solution (LNHBSS) (150 mM Choline Chloride, […] (Sigma), 1 mM Calcium Chloride, 5 mM Potassium Chloride, 1 mM Magnesium Chloride, 10 mM Glucose) agents diluted with LNHBSS are added to each well. (Varying concentrations of test agent may be used). The activation/radiolabel mixture contains aconitine (Sigma), and ^14C-guanidine hydrochloride (ARC).
After loading the cells with test agent and activation/radiolabel mixture, the Scintiplates are incubated at ambient temperature. Following the incubation, the Scintplates are extensively washed with LNHBSS supplemented with guanidine (Sigma). The Scintiplates are dried and then counted using a Wallac MicroBeta TriLux (Perkin-Elmer Life Sciences). The ability of the test agent to block sodium channel activity is determined by comparing the amount of ^14C-guanidine present inside the cells expressing the different sodium channels.
IC50 value of a test agent for a specific sodium channel may be determined using the above general method. […] The IC50 curve is calculated using the 4 Parameter Logistic Model or Sigmoidal Dose-Response Model formula (fit=(A+((B−A)/(1+((C/x)^D)))).
The fold selectivity, factor of selectivity or multiple of selectivity, is calculated by dividing the IC50 value of the test sodium channel by the reference sodium channel, for example, Nav1.5.
The Example numbers provided in Table 2 correspond to the Example numbers herein: […]

Nav1.4 in CHO-K1 cells = format: cell-based, Chinese hamster
[1] = tested on: Nav1.8 in SK-N-BE2C cells; format: cell-based, human
Nav1.2 in PC12 cells = Nav1.2 in PC12 cells (Rattus norvegicus, UniProt P04775)
Sequence of Nav1.2 in PC12 cells (P04775 whole entry, looked up): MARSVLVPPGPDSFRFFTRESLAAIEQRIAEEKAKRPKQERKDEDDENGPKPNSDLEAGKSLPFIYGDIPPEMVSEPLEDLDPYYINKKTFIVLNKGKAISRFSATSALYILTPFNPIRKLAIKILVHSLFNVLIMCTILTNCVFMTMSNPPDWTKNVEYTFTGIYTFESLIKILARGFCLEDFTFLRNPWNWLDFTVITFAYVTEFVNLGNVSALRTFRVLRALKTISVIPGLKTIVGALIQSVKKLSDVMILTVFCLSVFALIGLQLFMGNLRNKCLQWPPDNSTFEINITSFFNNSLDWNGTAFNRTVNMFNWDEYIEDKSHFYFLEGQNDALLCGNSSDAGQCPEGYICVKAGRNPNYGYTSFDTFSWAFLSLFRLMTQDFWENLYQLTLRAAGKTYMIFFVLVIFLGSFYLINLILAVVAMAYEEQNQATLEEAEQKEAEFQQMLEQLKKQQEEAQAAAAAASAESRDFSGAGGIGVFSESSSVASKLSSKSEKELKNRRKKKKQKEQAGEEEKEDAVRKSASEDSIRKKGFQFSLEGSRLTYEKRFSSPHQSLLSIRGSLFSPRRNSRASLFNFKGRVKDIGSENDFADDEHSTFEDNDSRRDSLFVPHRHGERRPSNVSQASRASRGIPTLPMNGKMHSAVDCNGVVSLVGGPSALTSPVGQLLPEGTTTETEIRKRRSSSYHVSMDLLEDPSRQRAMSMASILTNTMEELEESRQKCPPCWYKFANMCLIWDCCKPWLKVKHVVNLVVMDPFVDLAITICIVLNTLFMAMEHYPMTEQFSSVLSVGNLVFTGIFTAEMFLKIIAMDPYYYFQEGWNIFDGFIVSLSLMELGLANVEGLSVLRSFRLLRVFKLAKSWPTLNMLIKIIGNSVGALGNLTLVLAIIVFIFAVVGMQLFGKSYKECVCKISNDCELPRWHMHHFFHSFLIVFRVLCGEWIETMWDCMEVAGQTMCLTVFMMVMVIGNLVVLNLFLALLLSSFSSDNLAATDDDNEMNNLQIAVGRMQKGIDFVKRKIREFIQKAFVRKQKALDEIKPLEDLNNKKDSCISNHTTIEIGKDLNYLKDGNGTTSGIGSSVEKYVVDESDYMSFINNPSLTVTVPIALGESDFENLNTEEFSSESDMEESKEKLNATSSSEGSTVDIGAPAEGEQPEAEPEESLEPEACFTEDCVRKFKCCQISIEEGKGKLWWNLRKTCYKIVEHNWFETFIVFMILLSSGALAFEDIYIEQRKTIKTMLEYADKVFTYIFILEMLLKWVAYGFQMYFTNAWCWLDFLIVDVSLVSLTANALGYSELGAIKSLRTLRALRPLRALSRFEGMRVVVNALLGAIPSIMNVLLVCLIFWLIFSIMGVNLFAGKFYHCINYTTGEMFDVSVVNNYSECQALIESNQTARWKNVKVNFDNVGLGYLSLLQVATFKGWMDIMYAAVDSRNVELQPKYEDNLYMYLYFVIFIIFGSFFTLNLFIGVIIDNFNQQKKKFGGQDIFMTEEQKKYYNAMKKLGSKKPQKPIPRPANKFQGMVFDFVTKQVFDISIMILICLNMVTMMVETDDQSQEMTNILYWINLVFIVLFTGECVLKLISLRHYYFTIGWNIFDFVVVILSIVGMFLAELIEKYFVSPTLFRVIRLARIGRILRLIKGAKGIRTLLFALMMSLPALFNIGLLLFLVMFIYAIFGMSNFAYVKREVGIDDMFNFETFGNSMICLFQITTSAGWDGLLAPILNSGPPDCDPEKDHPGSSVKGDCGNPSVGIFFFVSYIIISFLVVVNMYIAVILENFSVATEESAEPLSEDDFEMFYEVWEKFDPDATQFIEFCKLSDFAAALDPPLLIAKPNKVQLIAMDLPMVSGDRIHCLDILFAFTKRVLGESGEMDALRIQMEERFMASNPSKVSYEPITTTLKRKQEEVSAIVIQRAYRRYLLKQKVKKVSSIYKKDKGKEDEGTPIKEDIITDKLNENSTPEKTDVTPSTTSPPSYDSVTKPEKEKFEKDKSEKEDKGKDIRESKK

[2] = tested on: Nav1.4 and 1.5 in L6 cells; format: cell-based, rat

| SMILES | melting point | pIC50 (sodium channel) | other results |
| --- | --- | --- | --- |
| CC(C)(C)OC(=O)N1CCCC(c2ccc3c(c2)C2(CO3)C(=O)Nc3ccccc32)C1 (stereo not drawn) [Example 55, tert-butyl 3-(2′-oxo-1′,2′-dihydrospiro[1-benzofuran-3,3′-indol]-5-yl)piperidine-1-carboxylate] | 120 to 123 °C | < 6.00 |  |
| NC1=N[C@H](O)[C@H]2[C@H]3O[C@]4(O)O[C@@H]([C@@H](O)[C@@]2(N1)[C@@H]4O)[C@]3(O)CO [TTX] |  |  | block of [14C] Guanidine influx by TTX (Nav1.4 in CHO-K1 cells): Guanidine influx was completely; block of [14C] Guanidine influx by TTX [1]: TTX partially blocked influx; block of [14C] Guanidine influx by TTX (Nav1.2 in PC12 cells): Guanidine influx was completely; block of [14C] Guanidine influx by TTX [2]: partially blocked by TTX (Nav1.5 |
| CCCCCN1C(=O)C2(OCc3cc4c(cc32)OCO4)c2ccccc21 (stereo not drawn) [Example 20, 1′-pentyl-7H-spiro[furo[3,4-f][1,3]benzodioxole-5,3′-indol]-2′(1′H)-one] | 113 to 115 °C | 8.00 to 9.00 |  |
| CCCCCN1C(=O)C2(COc3cc(-c4ccncc4)ccc32)c2ccccc21 (stereo not drawn) [Example 38, 1′-pentyl-6-pyridin-4-ylspiro[1-benzofuran-3,3′-indol]-2′(1′H)-one] | 107 to 110 °C | 6.00 to 7.00 |  |
| CCCCCN1C(=O)C2(COc3cc4c(cc32)OCO4)c2c(C#N)cccc21 (stereo not drawn) [Example 30, 2′-oxo-1′-pentyl-1′,2′-dihydrospiro[furo[2,3-f][1,3]benzodioxole-7,3′-indole]-4′-carbonitrile] | 128 to 129 °C | 7.00 to 8.00 |  |
| O=C(NCCN1C(=O)C2(COc3cc4c(cc32)OCO4)c2ccccc21)c1ccccc1OC(F)(F)F (stereo not drawn) [Example 59, N-[2-(2′-oxospiro[furo[2,3-f][1,3]benzodioxole-7,3′-indol]-1′(2′H)-yl)ethyl]-2-(trifluoromethoxy)benzamide] | 183 to 184 °C | 6.00 to 7.00 |  |
| O=C1N(C(c2ccccc2)c2ccccc2)c2ccccc2C12COc1ccc(-c3cccnc3)cc12 (stereo not drawn) [Example 54, 1′-(diphenylmethyl)-5-pyridin-3-ylspiro[1-benzofuran-3,3′-indol]-2′(1′H)-one] | 204 to 207 °C | < 6.00 |  |
| CCCCCN1C(=O)C2(CC(OC)c3cc4c(cc32)OCO4)c2ccccc21 (stereo not drawn) [Example 27, 7-methoxy-1′-pentyl-6,7-dihydrospiro[indeno[5,6-d][1,3]dioxole-5,3′-indol]-2′(1′H)-one] |  | < 6.00 |  |
| O=C(O)c1ccc(CN2C(=O)C3(COc4cc5c(cc43)OCO5)c3ccccc32)cc1 (stereo not drawn) [Example 11, 4-[(2′-oxospiro[furo[2,3-f][1,3]benzodioxole-7,3′-indol]-1′(2′H)-yl)methyl]benzoic acid] |  | < 6.00 |  |
| CCCCCN1C(=O)C2(COc3cc(Oc4ccccc4)ccc32)c2ccccc21 (stereo not drawn) [Example 36, 1′-pentyl-6-phenoxyspiro[1-benzofuran-3,3′-indol]-2′(1′H)-one] |  | < 6.00 |  |
| CCCCCN1C(=O)C2(COc3ccc(-c4cccnc4)cc32)c2ccccc21 (stereo not drawn) [Example 48, 1′-pentyl-5-pyridin-3-ylspiro[1-benzofuran-3,3′-indol]-2′(1′H)-one] |  | 6.00 to 7.00 |  |
| O=C(CN1C(=O)C2(COc3ccc(-c4cccnc4)cc32)c2ccccc21)Nc1ccccc1F (stereo not drawn) [Example 52, N-(2-fluorophenyl)-2-(2′-oxo-5-pyridin-3-ylspiro[1-benzofuran-3,3′-indol]-1′(2′H)-yl)acetamide] | 98 to 100 °C | 6.00 to 7.00 |  |
| O=C(NCCN1C(=O)C2(COc3cc4c(cc32)OCO4)c2ccccc21)Nc1ccc(F)cc1 (stereo not drawn) [Example 19, 1-(4-fluorophenyl)-3-[2-(2′-oxospiro[furo[2,3-f][1,3]benzodioxole-7,3′-indol]-1′(2′H)-yl)ethyl]urea] |  | < 6.00 |  |
| CCCCCN1C(=O)C2(COc3ccc(-c4cncnc4)cc32)c2ccccc21 (stereo not drawn) [Example 49, 1′-pentyl-5-pyrimidin-5-ylspiro[1-benzofuran-3,3′-indol]-2′(1′H)-one] | 115 to 117 °C | 6.00 to 7.00 |  |
| CCCCCN1C(=O)C2(CCC(=O)c3cc4c(cc32)OCO4)c2ccccc21 (stereo not drawn) [Example 22, 1-pentyl-6′H-spiro[indole-3,5′-naphtho[2,3-d][1,3]dioxole]-2,8′(1′H,7′H)-dione] |  | 8.00 to 9.00 |  |
| O=C1N(CCC2CC2)c2ccccc2C12COc1cc3c(cc12)OCO3 (stereo not drawn) [Example 1, 1′-(2-cyclopropylethyl)spiro[furo[2,3-f][1,3]benzodioxole-7,3′-indol]-2′(1′H)-one] | 125 to 127 °C | 8.00 to 9.00 |  |
| CCCCCN1C(=O)C2(COc3cc(S(C)(=O)=O)ccc32)c2ccccc21 (stereo not drawn) [Example 39, 6-(methylsulfonyl)-1′-pentylspiro[1-benzofuran-3,3′-indol]-2′(1′H)-one] |  | < 6.00 |  |
| O=C(CN1C(=O)C2(COc3cc4c(cc32)OCO4)c2ccccc21)NCc1ccc(Cl)cc1 (stereo not drawn) [Example 3, N-(4-chlorobenzyl)-2-(2′-oxospiro[furo[2,3-f][1,3]benzodioxole-7,3′-indol]-1′(2′H)-yl)acetamide] |  | 6.00 to 7.00 |  |

Source: patent publication US8466188B2, “Use of spiro-oxindole compounds as therapeutic agents” (Xenon Pharmaceuticals Inc., priority 2006, dated 2013)
